Data reported in patent US6399543B1, “Low foam N,N′-dialkyltartaramide wetting agents” (Air Products and Chemicals, Inc., priority 2001, dated 2002).

How the values were obtained:
Type in all cases: physicochemical
[1] = Foaming properties of aqueous solutions, procedure based upon ASTM D 1173-53; details: filtrate of aqueous mixture of the tartaramide; for Initial Foam: foam height at completion of addition
Method: The foaming properties of aqueous solutions of N,N′-di-iso-pentyl L-tartaramide (Ex 1), N,N′-di-2-ethylhexyl L-tartaramide (Ex 5) and two representative nonionic surfactants, a commercial nonylphenol 15 mole ethoxylate surfactant and a commercial C8 alkyl glucoside surfactant, were examined using a procedure based upon ASTM D 1173-53.
In this test, an aqueous mixture of the tartaramides was prepared, any undissolved solids were filtered off, and the filtrate was added from an elevated glass pipette to a glass receiver containing the same filtrate. Regarding the commercial materials, a 0.1 wt % solution of the surfactant was added from an elevated glass pipette to a glass receiver containing the same solution. The foam height was measured at the completion of the addition (“Initial Foam Height”) and the time required for the foam to dissipate at the air-liquid interface (“Time to 0 Foam”) was recorded. This test provides a comparison between the foaming characteristics of various surfactants. In general, in coatings, inks, adhesives, agricultural and electronics cleaning formulations, foam is undesirable because it complicates handling and can lead to coating and print defects, and to inefficient application of agricultural materials.

[2] = Concentration of surfactant in filtered saturated solution in distilled water; details: shaken ~24 hours
Method: (§1) Saturated solutions of the materials of Examples 1-9 in distilled water were prepared. After shaking the solutions for ˜24 hours, the undissolved material was removed via filtration. Equilibrium surface tension (EST) data were obtained using the Wilhelmy plate method. Equilibrium surface tension values between 65-72 dyne/cm are considered to be indicative of a lack of surface activity (i.e., a lack of surfactancy).

[3] = Equilibrium surface tension (EST), Wilhelmy plate method, saturated aqueous solutions; details: for Limiting EST: saturated solution in distilled water, undissolved material filtered off, Wilhelmy plate
Method: where R^1 and R^2 are C4 to C8 alkyl groups, and at least one of R^1 and R^2 is a branched C4 to C8 alkyl group. […] The Wilhelmy plate method of measuring surface tension is described in L. Wilhelmy's article in Ann. Phys. 1863, 119, 177, which is incorporated by reference.
as §1
The limiting surface tensions represent the lowest surface tensions in water which can be achieved for a given surfactant regardless of the amount of surfactant used and is used to evaluate the effectiveness of a surfactant. Lower surface tensions would allow for the elimination of defects upon application of a formulation onto low energy surfaces.

| SMILES | Foam after 5 min [1] [cm] | Time to zero foam [1] | Initial Foam [1] [cm] | Concentration of Surfactant in Solution [2] [wt. %] | Limiting EST [3] [dyne/cm] | lowering the equilibrium surface tension of water (in words) [3] |
| --- | --- | --- | --- | --- | --- | --- |
| CC(C)CCNC(=O)[C@H](O)[C@@H](O)C(=O)NCCC(C)C [Ex 1, N,N′-Di-iso-pentyl L-tartaramide] | 0 | ≦5 sec | 0.5 | <1.5 | 48.0 |  |
| CCCCCCC(C)NC(=O)C(O)C(O)C(=O)NC(C)CCCCCC [Ex 2, N,N′-Di-1-methylheptyl L-tartaramide] |  |  |  | <0.1 | 39.5 | particularly effective |
| CC(C)CCCC(C)NC(=O)C(O)C(O)C(=O)NC(C)CCCC(C)C [Ex 3, N,N′-Di-1,5-dimethylhexyl L-tartaramide] |  |  |  | <0.1 | 38.0 | particularly effective |
| CCCCCC(C)NC(=O)C(O)C(O)C(=O)NC(C)CCCCC [Ex 4, N,N′-Di-1-methylhexyl L-tartaramide] |  |  |  | <0.1 | 41.5 | particularly effective |
| CCCCC(CC)CNC(=O)C(O)C(O)C(=O)NCC(CC)CCCC [Ex 5, N,N′-Di-2-ethylhexyl L-tartaramide] | 0 | ˜3 sec | 1.5 | <0.1 | 41.4 | particularly effective |
| CCCNC(=O)[C@H](O)[C@@H](O)C(=O)NCCC [Ex 6, N,N′-Di-n-propyl L-tartaramide] |  |  |  | <1.0 | 67.7 |  |
| CCCCNC(=O)[C@H](O)[C@@H](O)C(=O)NCCCC [Ex 7, N,N′-Di-n-butyl L-tartaramide] |  |  |  | <1.0 | 65.0 |  |
| CCCCCCNC(=O)[C@H](O)[C@@H](O)C(=O)NCCCCCC [Ex 8, N,N′-Di-n-hexyl L-tartaramide] |  |  |  | <0.1 | 67.8 |  |
| O=C(NC1CCCCC1)[C@H](O)[C@@H](O)C(=O)NC1CCCCC1 [Ex 9, N,N′-Di-cyclohexyl L-tartaramide] |  |  |  | <0.1 | 67.9 |  |
